Patent publication US9688966B2, “Compositions comprising cellobiose dehydrogenase from Pycnoporus cinnabarinus and their use for the degradation of lignocellulosic biomass” (INSTITUT NATIONAL DE LA RECHERCHE AGRONOMIQUE, priority 2011, dated 2017)

Biological target: Pycnoporus cinnabarinus ss3 cellobiose dehydrogenase, recombinant (rCDH, C-terminal (His)6 tag, expressed in Pichia pastoris; GenBank HQ825322) (Trametes cinnabarina, UniProt F1DFN2)
Assay: Kinetic parameters of purified rCDH for electron acceptors (cellobiose oxidation, 30° C., pH 4.5)
Format: biochemical
Method: To measure enzyme activities in the P. cinnabarinus culture supernatant, each aliquot was centrifuged for 5 min at 3500 rpm and filtered through a 0.45 μm membrane (MILLIPORE, Bedford, Mass., USA). CDH activities were determined by monitoring the reduction of 0.2 mM 2,6-dichlorophenol indophenol (DCPIP) in 100 mM sodium acetate buffer (pH 5) containing 2 mM cellobiose and 4 mM of sodium fluoride (sodium fluoride was used as a laccase inhibitor). The decrease in absorption at 520 nm (ε=6800 M^−1·cm^−1) was monitored at 30° C. for 1 min. Alternatively, CDH activity was determined by monitoring the reduction of 50 μM cytochrome c (cyt c) in 100 mM sodium-acetate buffer (pH 5) containing 2 mM cellobiose. The decrease in absorption at 550 nm (ε=33,700 M^−1·cm^−1) was monitored at 30° C. for 1 min. Glucose oxidase was measured by using the D-gluconic acid/D-glucono-δ-lactone assay (MEGAZYME). Laccase activity was determined quantitatively by monitoring the oxidation of 5 mM ABTS (2,2′-azino-bis(3-ethylbenzthiazoline-6-sulfonic acid)) at 420 nm (extinction coefficient […] cm.^−1) in the presence of 50 mM NaK tartrate, pH 4.0. Lignin peroxidase activity was determined spectrophotometrically at 30° C. by the method of Tien and Kirk (1988, Methods Enzymol., vol. 161, pp: 238-249). Manganese peroxidase activity was determined spectrophotometrically at 30° C. by the method of Paszczynski et al. (1985, FEMS Microbiol. Lett. 29:37-41) using H2O2 and vanillylacetone as substrate. Enzyme activity was expressed in international units (IU). One unit of activity is defined as the quantity of enzyme that transforms 1 μmol of substrate in one minute.
The kinetic parameters (Vmax and Km) were determined for cellobiose oxidation measured at 30° C. in 50 mM citrate phosphate buffer pH 4.5 using DCPIP or cytochrome c. The concentration of cellobiose ranged from 10 to 700 μM with both electron acceptors (DCPIP and cytochrome c). Triplicates were run to ensure reliable kinetic parameter determination.
Graphpad prism v.4 (Graphpad Software) was used for the nonlinear regression calculation and kinetic parameter determination.

[1] = electron acceptor DCPIP, cellobiose as electron donor, 30° C., pH 4.5, apparent

Chain of Pycnoporus cinnabarinus ss3 cellobiose dehydrogenase, recombinant (rCDH, C-terminal (His)6 tag, expressed in Pichia pastoris; GenBank HQ825322) (F1DFN2 1-750): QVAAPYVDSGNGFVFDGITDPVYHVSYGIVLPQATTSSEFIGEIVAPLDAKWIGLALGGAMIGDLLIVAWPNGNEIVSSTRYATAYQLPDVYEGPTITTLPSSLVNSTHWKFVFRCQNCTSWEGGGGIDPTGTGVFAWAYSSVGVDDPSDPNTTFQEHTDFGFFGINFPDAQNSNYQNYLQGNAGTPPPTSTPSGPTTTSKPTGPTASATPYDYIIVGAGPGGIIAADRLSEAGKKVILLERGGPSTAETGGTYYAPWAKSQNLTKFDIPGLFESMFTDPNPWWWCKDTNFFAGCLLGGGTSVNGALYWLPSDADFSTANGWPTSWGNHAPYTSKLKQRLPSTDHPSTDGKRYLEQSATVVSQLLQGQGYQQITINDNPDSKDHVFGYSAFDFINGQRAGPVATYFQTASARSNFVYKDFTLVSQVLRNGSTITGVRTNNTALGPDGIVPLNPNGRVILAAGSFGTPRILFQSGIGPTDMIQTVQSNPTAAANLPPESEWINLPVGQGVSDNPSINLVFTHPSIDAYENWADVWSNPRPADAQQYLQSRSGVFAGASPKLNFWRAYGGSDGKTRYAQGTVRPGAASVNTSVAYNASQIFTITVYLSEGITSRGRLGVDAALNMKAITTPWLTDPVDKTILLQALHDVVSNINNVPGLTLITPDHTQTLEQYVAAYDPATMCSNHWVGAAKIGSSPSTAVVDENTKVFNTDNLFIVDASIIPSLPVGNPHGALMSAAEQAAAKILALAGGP

## O=C1C(Cl)=CC(=Nc2ccc(O)cc2)C=C1Cl [DCPIP, 2,6-dichlorophenol indophenol]
DCPIP, on cellobiose oxidation
  Vmax: 22.2 U·mg^−1
[1]
  Vmax: 22.2 µmol/min/mg
  kcat: 40.8 s⁻¹
  kcat/KM: 1.148e+06 M⁻¹ s⁻¹
